The text below walks through data of US4064255A, “Compositions containing new indole derivatives and their use in pharmacology” (Mar-Pha Societe d'Etudes et d'Exploitation de Marques, priority 1975, dated 1977).

In data set [1] the test system is dopamine (DA) recapture by brain synaptosomes. Description: in vitro inhibition of dopamine uptake (recapture) by rat-brain synaptosomes. The format is biochemical. The following applies: read-out: I50, dose inhibiting 50% of recapture by brain synaptosomes of dopamine (DA). The source says:
(§1) The entire disclosure of Kannengiesser et al is relied on in this connection and incorporated herein by reference.

The test system of data set [2] is 5-HTP hypermotility. Description: potentiation of 5-HTP hypermotility in mice. The conditions noted are these: 30 min after 5-HTP 150 mg/kg i.p., motility 45th-75th minute. The format is in vivo, male mouse CD1 (Charles River). The protocol: The effectiveness of the compounds of the present invention in blocking serotonine uptake also was shown using the potentiation test of 5-hydroxy tryptophane (5-HTP).
1, 11-1972. This test consists of looking for the potentiation of the hypermotility induced by 5-HTP. for high dosages the precursor will induce very characteristic hypermotility with jumps.
The animals are divided into groups of 25 mice and treated i.p. with 150 mg/kg of 5-HTP. The products to be tested are administered sub-cutaneously, 30 minutes after the 5-HTP, the control group receiving only the administrative vehicle. The overall motility of the animals is measured from the 45th to the 75th minute after (administration of) the 5-HTP. The results for the treated groups are shown in % increase in motility with respect to the control group.

Data set [3] is described as follows: acute toxicity in mice (LD50). The format is in vivo, male mouse CD1 (Charles River). The following applies: mouse, in vivo, male CD1 mice, three days' observation. The method, then: (§2) The toxicity and acute symptomatologies of the compounds of the invention were determined in the male mouse CD1 (Charles River) in intravenous and oral manner. The LD50 were computed following three days' observation by the cumulative method of Reed & Muench (Am. J. Hyg. 27, 493, 1938).

Data set [4] relates to noradrenaline (NA) recapture by brain synaptosomes. Description: in vitro inhibition of noradrenaline uptake (recapture) by rat-brain synaptosomes. It counts as biochemical. The following applies: read-out: I50, dose inhibiting 50% of recapture by brain synaptosomes of noradrenaline (NA).
Source text: as §1

For data set [5], the system named is serotonin (5HT) recapture by brain synaptosomes. Description: in vitro inhibition of serotonin uptake (recapture) by rat-brain synaptosomes. The format is biochemical. The conditions noted are these: for selectivity of action on cerebral serotonin: in words; for IC50: rat-brain synaptosomes, 5HT, read-out: I50, dose inhibiting 50% of recapture by brain synaptosomes of serotonin (5HT).
Source text: as §1

Data set [6] relates to mice. Description: acute toxicity in mice (LD50). The following applies: intravenous, male CD1 mice, three days' observation; 4320 min. The format is in vivo, male mouse CD1 (Charles River). The method, then:
as §2

[7] abbreviates: intravenous, read-out: LD50 I.V.

SMILES strings stand for the structures. Like-named read-outs stand apart in the source and are kept apart here.

Take `CN(C)CCCN1c2ccccc2CCc2ccc(Cl)cc21` [Clomipramine, reference compound]: the IC50 in data set [1] was 5 µM; in data set [4] it was 7 µM. For the same compound, the “Potentiation of 5-HTP hypermotility, % change with respect to controls” value (“Potentiation … % change with respect to controls” below) in data set [2] (15 mg/kg s.c.) is “+190%”. The LD50 at 72 h in data set [3] (setting [7]) was 45 mg/kg; in data set [3] (oral, read-out: LD50 orally) it was 380 mg/kg.
`O=C(CC1CCNCC1)c1c[nH]c2ccccc12` [Example 1, INDOLYL-3 (PIPERIDYL-4 METHYL) KETONE]: the “selectivity of action on cerebral serotonin” value (“selectivity of action” below) in data set [5] is on record as “act more selectively than clomipramine”. For the same compound, the IC50 in data set [5] stood at 0.08 µM; in data set [1], 65 µM; in data set [4], 20 µM. Further, the “LD50 I.V.” value in data set [6] turned out to be 47 mg/kg.
Take `COc1ccc2[nH]cc(C(=O)CC3CCNCC3)c2c1` [Example 2, (METHOXY-5 INDOLYL-3) (PIPERIDYL-4 METHYL) KETONE]: the results for the IC50 in data set [5], in data set [1] and in data set [4] were 0.65 µM, 70 µM and 160 µM, respectively. For the same compound, the LD50 at 72 h in data set [3] (setting [7]) was 44 mg/kg; in data set [3] (oral, read-out: LD50 orally), greater than 900 mg/kg.
Regarding `O=C(CC1CCNCC1)c1c[nH]c2ccc(Cl)cc12` [Example 3, (CHLORO-5 INDOLYL-3) (PIPERIDYL-4 METHYL) KETONE], the values for the IC50 in data set [5], in data set [1] and in data set [4] were 0.6 µM, 12 µM and 30 µM, respectively. The LD50 at 72 h in data set [3] (oral, read-out: LD50 orally) lay in the range of 300 to 900 mg/kg.
As to `Cn1cc(CCC2CCNCC2)c2ccccc21` [Example 9, [(METHYL-1 INDOLYL-3)-2 ETHYL]-4 PIPERIDINE], the “selectivity of action” value in data set [5] is given as “act more selectively than clomipramine”. The results for the IC50 in data set [5], in data set [1] and in data set [4] were 0.02 µM, 60 µM and 60 µM, respectively. Besides, the “Potentiation … % change with respect to controls” value is “+134%” in data set [2] (5 mg/kg s.c.) and “+296%” in data set [2] (25 mg/kg s.c.). Besides, the 50% lethal dose (LD50) at 72 h in data set [3] (setting [7]) amounted to 44 mg/kg; in data set [3] (oral, read-out: LD50 orally) it was 225 mg/kg.
Regarding `c1ccc2c(CCC3CCNCC3)c[nH]c2c1` [Example 10, [(INDOLYL-3)-2 ETHYL]-4 PIPERIDINE], in data set [5], the “selectivity of action” value was “act more selectively than clomipramine”. Further, the IC50 in data set [5] came out at 0.04 µM; in data set [1], 4 µM; in data set [4], 8 µM. In addition, the entries for the “Potentiation … % change with respect to controls” value in data set [2] (5 mg/kg s.c.) and in data set [2] (25 mg/kg s.c.) were “+196%” and “+262%”, respectively. The LD50 at 72 h in data set [3] (setting [7]) was 60 mg/kg; in data set [3] (oral, read-out: LD50 orally), 600 mg/kg.
With `c1ccc2c(CC3CCNCC3)c[nH]c2c1` [Example 11, (INDOLYL-3 METHYL) -4 PIPERIDINE], the figures for the IC50 in data set [5], in data set [1] and in data set [4] were 0.15 µM, 4 µM and 5 µM, respectively. In addition, the LD50 at 72 h was determined as 57 mg/kg in data set [3] (setting [7]) and 225 mg/kg in data set [3] (oral, read-out: LD50 orally).
In the case of `c1ccc2c(CCCC3CCNCC3)c[nH]c2c1` [Example 13, [(INDOLYL-3)-3 PROPYL]-4 PIPERIDINE], the “selectivity of action” value in data set [5] is “act more selectively than clomipramine”. The IC50 stood at 0.04 µM in data set [5], 5.5 µM in data set [1] and 13 µM in data set [4].

In general, LD50 refers to the dose at which mortality reaches 50%.
